Our source for the IC50 values is patent US8921555B2, “Substituted-1,3,8-triazaspiro[4.5]decane-2,4-diones” (Merck Sharp & Dohme Corp., priority 2009, dated 2014).

In general, IC50 refers to the concentration at which inhibition is half-maximal.

In one assay the target is T1, HIF-PHD2 (Homo sapiens, UniProt Q9GZT9).
T1 construct: FLAG-tagged full length PHD2 expressed in and purified from baculovirus-infected Sf9 cells; FLAG; made in house; host or cells: baculovirus-infected Sf9 cells
T1 sequence (Q9GZT9 whole entry): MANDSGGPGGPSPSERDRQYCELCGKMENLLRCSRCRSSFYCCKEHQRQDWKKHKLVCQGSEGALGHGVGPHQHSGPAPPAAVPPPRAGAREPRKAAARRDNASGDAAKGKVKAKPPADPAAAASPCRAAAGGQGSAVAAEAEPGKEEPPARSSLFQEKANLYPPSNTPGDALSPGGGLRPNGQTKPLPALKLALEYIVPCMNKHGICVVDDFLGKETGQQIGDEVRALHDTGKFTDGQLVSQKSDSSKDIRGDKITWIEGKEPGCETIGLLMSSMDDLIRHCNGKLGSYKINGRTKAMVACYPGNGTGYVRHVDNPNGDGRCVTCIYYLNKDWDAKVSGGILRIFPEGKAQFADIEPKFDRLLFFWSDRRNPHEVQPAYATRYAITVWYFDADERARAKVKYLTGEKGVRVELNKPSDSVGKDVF
Kind of assay: Assay for HIF-PHD2 Catalytic Activity (PHD2 Binding Activity). It is filed as biochemical.
Conditions: not given
`Cc1cccnc1CN1CCC2(CC1)C(=O)N(c1ccc(-c3ccccc3)cc1)C(=O)N2c1ncccc1O` [Compound 1-43, 3-biphenyl-4-yl-1-(3-hydroxypyridin-2-yl)-8-[(3-methylpyridin-2-yl)methyl]-1,3,8-triazaspiro[4.5]decane-2,4-dione] displayed an IC50 of 20 to 50 nM.
On the same count and under the same terms, in the case of `Cc1cccnc1CN1CCC2(CC1)C(=O)N(c1ccc(-c3ccccc3)cc1)C(=O)N2c1cnc(O)cn1` [Compound 1-45, 3-biphenyl-4-yl-1-(5-hydroxypyrazin-2-yl)-8-[(3-methylpyridin-2-yl)methyl]-1,3,8-triazaspiro[4.5]decane-2,4-dione] it was 20 to 50 nM; in that of `CCCCOC(=O)c1[nH]cnc1CN1CCC2(CC1)C(=O)N(c1ccc(-c3ccccc3)cc1)C(=O)N2c1nccc(O)n1` [Compound 1-46, Butyl 4-{[3-biphenyl-4-yl-1-(4-hydroxypyrimidin-2-yl)-2,4-dioxo-1,3,8-triazaspiro[4.5]dec-8-yl]methyl}-1-H-imidazole-5-carboxylate], 20 to 50 nM; in that of `CCCCOC(=O)c1[nH]cnc1CN1CCC2(CC1)C(=O)N(c1ccc(-c3ccccc3)cc1)C(=O)N2c1nccc(OC)n1` [Compound 1-47, Butyl 4-{[3-biphenyl-4-yl-1-(4-methoxypyrimidin-2-yl)-2,4-dioxo-1,3,8-triazaspiro[4.5]dec-8-yl]methyl}-1-H-imidazole-5-carboxylate], 20 to 50 nM.
With `CCCCOC(=O)c1[nH]cnc1CN1CCC2(CC1)C(=O)N(c1ccc(-c3ccccc3)cc1)C(=O)N2c1cc(OC)ncn1` [Compound 1-48, Butyl 4-{[3-biphenyl-4-yl-1-(6-methoxypyrimidin-4-yl)-2,4-dioxo-1,3,8-triazaspiro[4.5]dec-8-yl]methyl}-1-H-imidazole-5-carboxylate], the IC50 lay in the range of 0.5 to 20 nM.
Still for that read-out and setting: as for `COc1ccnc(N2C(=O)N(c3ccc(-c4ccccc4)cc3)C(=O)C23CCN(Cc2nc[nH]c2C)CC3)n1` [Compound 1-49, 3-biphenyl-4-yl-1-(4-methoxypyrimidin-2-yl)-8-[(5-methyl-1-H-imidazol-4-yl)methyl]-1,3,8-triazaspiro[4.5]decane-2,4-dione], the figure is 0.5 to 20 nM.
Same read-out and setting: as for `O=C(O)c1[nH]cnc1CN1CCC2(CC1)C(=O)N(c1ccc(-c3ccccc3)cc1)C(=O)N2c1nccc(O)n1` [Compound 1-50], the figure is 20 to 50 nM.
Still for that read-out and setting: in the case of `O=C(O)c1[nH]cnc1CN1CCC2(CC1)C(=O)N(c1ccc(-c3ccccc3)cc1)C(=O)N2c1cc(O)ncn1` [Compound 1-52, 4-{[3-biphenyl-4-yl-1-(6-hydroxypyrimidin-4-yl)-2,4-dioxo-1,3,8-triazaspiro[4.5]dec-8-yl]methyl}-1-H-imidazole-5-carboxylic acid] it was 0.5 to 20 nM; in that of `Cc1[nH]cnc1CN1CCC2(CC1)C(=O)N(c1ccc(-c3ccccc3)cc1)C(=O)N2c1cc(O)ncn1` [Compound 1-53, 3-biphenyl-4-yl-1-(6-hydroxypyrimidin-4-yl)-8-[(5-methyl-1-H-imidazol-4-yl)methyl]-1,3,8-triazaspiro[4.5]decane-2,4-dione], 0.5 to 20 nM.
Consider `Cc1cccnc1CN1CCC2(CC1)C(=O)N(c1ccc(-c3ccccc3)cc1)C(=O)N2c1nc(O)cc(O)n1` [Compound 1-55, 3-biphenyl-4-yl-1-(4,6-dihydroxypyrimidin-2-yl)-8-[(3-methylpyridin-2-yl)methyl]-1,3,8-triazaspiro[4.5]decane-2,4-dione], for which the IC50 fell in the range of 0.5 to 20 nM.
Same read-out and setting: in the case of `COc1cc(O)nc(N2C(=O)N(c3ccc(-c4ccccc4)cc3)C(=O)C23CCN(Cc2ncccc2C)CC3)n1` [Compound 1-56, 3-biphenyl-4-yl-1-(4-hydroxy-6-methoxypyrimidin-2-yl)-8-[(3-methylpyridin-2-yl)methyl]-1,3,8-triazaspiro[4.5]decane-2,4-dione] it was 0.5 to 20 nM; in that of `COc1cc(OC)nc(N2C(=O)N(c3ccc(-c4ccccc4)cc3)C(=O)C23CCN(Cc2ncccc2C)CC3)n1` [Compound 1-57, 3-biphenyl-4-yl-1-(4,6-dimethoxypyrimidin-2-yl)-8-[(3-methylpyridin-2-yl)methyl]-1,3,8-triazaspiro[4.5]decane-2,4-dione], 0.5 to 20 nM; in that of `Cc1cccnc1CN1CCC2(CC1)C(=O)N(c1ccc(-c3ccccc3)cc1)C(=O)N2c1ccnc(O)c1` [Compound 1-58, 3-biphenyl-4-yl-1-(2-hydroxypyridin-4-yl)-8-[(3-methylpyridin-2-yl)methyl]-1,3,8-triazaspiro[4.5]decane-2,4-dione], 0.5 to 20 nM.
On the same count and under the same terms, as for `Cc1cccnc1CN1CCC2(CC1)C(=O)N(c1ccc(-c3ccccc3)cc1)C(=O)N2c1nccc(C(=O)O)n1` [Compound 1-59, 2-{3-biphenyl-4-yl-8-[(3-methylpyridin-2-yl)methyl]-2,4-dioxo-1,3,8-triazaspiro[4.5]dec-1-yl}pyrimidine-4-carboxylic acid], the figure is 0.5 to 20 nM; as for `COC(=O)c1ccc(-c2ccc(N3C(=O)N(c4ncccn4)C4(CCN(Cc5ncccc5C)CC4)C3=O)cc2)cc1` [Compound 1-61, Methyl 4′-{8-[(3-methylpyridin-2-yl)methyl]-2,4-dioxo-1-pyrimidin-2-yl-1,3,8-triazaspiro[4.5]dec-3-yl}biphenyl-4-carboxylate], 0.5 to 20 nM; as for `O=C(O)c1[nH]cnc1CN1CCC2(CC1)C(=O)N(c1ccc(-c3ccccc3)cc1)C(=O)N2c1ncccn1` [Compound 1-64, 4-[(3-biphenyl-4-yl-2,4-dioxo-1-pyrimidin-2-yl-1,3,8-triazaspiro[4.5]dec-8-yl)methyl]-1-H-imidazole-5-carboxylic acid], 0.5 to 20 nM.
With `Cc1cccnc1CN1CCC2(CC1)C(=O)N(c1ccc(-c3cccc(C(=O)O)c3)cc1)C(=O)N2c1ncccn1` [Compound 1-66, 4′-{8-[(3-methylpyridin-2-yl)methyl]-2,4-dioxo-1-pyrimidin-2-yl-1,3,8-triazaspiro[4.5]dec-3-yl}biphenyl-3-carboxylic acid], the concentration for half-maximal inhibition (IC50) lay within 0.5 to 20 nM.
The same measure, in the same setting: in the case of `Cc1cccnc1CN1CCC2(CC1)C(=O)N(c1ccc(-c3ccc(CC(=O)O)cc3)cc1)C(=O)N2c1ncccn1` [Compound 1-67, (4′-{8-[(3-methylpyridin-2-yl)methyl]-2,4-dioxo-1-pyrimidin-2-yl-1,3,8-triazaspiro[4.5]dec-3-yl}biphenyl-4-yl)acetic acid] it was 20 to 50 nM; in that of `Cc1cccnc1CN1CCC2(CC1)C(=O)N(c1ccc(-c3ccccc3)cc1)C(=O)N2c1ccncn1` [Compound 1-68, 3-biphenyl-4-yl-8-[(3-methylpyridin-2-yl)methyl]-1-pyrimidin-4-yl-1,3,8-triazaspiro[4.5]decane-2,4-dione], 0.5 to 20 nM.
Still for that read-out and setting: in the case of `Cc1cccnc1CN1CCC2(CC1)C(=O)N(c1ccc(C3CC3C(=O)O)cc1)C(=O)N2c1ncccn1` (stereo not shown) [Compound 1-69, 2-(4-{8-[(3-methylpyridin-2-yl)methyl]-2,4-dioxo-1-pyrimidin-2-yl-1,3,8-triazaspiro[4.5]dec-3-yl}phenyl)cyclopropanecarboxylic acid] it was 0.5 to 20 nM; in that of `COc1ccnc(N2C(=O)N(c3ccc(-c4ccccc4)cc3)C(=O)C23CCN(Cc2nnn[nH]2)CC3)n1` [Compound 1.39, 3-biphenyl-4-yl-1-(4-methoxypyrimidin-2-yl)-8-(1H-tetrazol-5-ylmethyl)-1,3,8-triazaspiro[4.5]decane-2,4-dione], over 50 nM.
Still for that read-out and setting: in the case of `CC(C)(C)OC(=O)CN1CCC2(CC1)C(=O)N(c1ccc(-c3ccccc3)cc1)C(=O)N2c1cnccn1` [Compound 2-2, tert-butyl (3-biphenyl-4-yl-2,4-dioxo-1-pyrazin-2-yl-1,3,8-triazaspiro[4.5]dec-8-yl)acetate] it was over 50 nM.
With `O=C(O)CN1CCC2(CC1)C(=O)N(c1ccc(-c3ccccc3)cc1)C(=O)N2c1cnccn1` [Compound 2-3, (3-biphenyl-4-yl-2,4-dioxo-1-pyrazin-2-yl-1,3,8-triazaspiro[4.5]dec-8-yl)acetic acid], the IC50 fell in the range of 0.5 to 20 nM.
In the case of `O=C(O)CN1CCC2(CC1)C(=O)N(c1ccc(-c3ccccc3)cc1)C(=O)N2c1cncnc1` [Compound 2-4, (3-biphenyl-4-yl-2,4-dioxo-1-pyrimidin-5-yl-1,3,8-triazaspiro[4.5]dec-8-yl)acetic acid], the IC50 was in the range of 20 to 50 nM.
Molecule `O=C(O)CN1CCC2(CC1)C(=O)N(c1ccc(-c3ccccc3)cc1)C(=O)N2c1ncccn1` [Compound 2-5, (3-biphenyl-4-yl-2,4-dioxo-1-pyrimidin-2-yl-1,3,8-triazaspiro[4.5]dec-8-yl)acetic acid] showed an IC50 of 0.5 to 20 nM.
Same read-out and setting: in the case of `COc1ccnc(N2C(=O)N(c3ccc(-c4ccccc4)cc3)C(=O)C23CCN(CC(=O)O)CC3)n1` [Compound 2-6, [3-biphenyl-4-yl-1-(4-methoxypyrimidin-2-yl)-2,4-dioxo-1,3,8-triazaspiro[4.5]dec-8-yl]acetic acid] it was 0.5 to 20 nM; in that of `CCOC(=O)C1CN(Cc2ncccc2C)CCC12C(=O)N(c1ccc(-c3ccccc3)cc1)C(=O)N2c1nccc(OC)n1` (stereo not shown) [Compound 3-2, ethyl 3-biphenyl-4-yl-1-(4-methoxypyrimidin-2-yl)-8-[(3-methylpyridin-2-yl)methyl]-2,4-dioxo-1,3,8-triazaspiro[4.5]decane-6-carboxylate], 0.5 to 20 nM; in that of `CCOC(=O)C1CN(Cc2ncccc2C)CCC12C(=O)N(c1ccc(-c3ccccc3)cc1)C(=O)N2c1nccc(O)n1` (stereo not shown) [Compound 3-3, ethyl 3-biphenyl-4-yl-1-(4-hydroxypyrimidin-2-yl)-8-[(3-methylpyridin-2-yl)methyl]-2,4-dioxo-1,3,8-triazaspiro[4.5]decane-6-carboxylate], 0.5 to 20 nM.

Still in this assay, the particulars now being: read-out: PHD2 Binding Activity IC50.
As for `O=C(O)c1[nH]cnc1CN1CCC2(CC1)NC(=O)N(c1ccc(-c3ccccc3)cc1)C2=O` [Compound 1-51, 4-[(3-biphenyl-4-yl-2,4-dioxo-1,3,8-triazaspiro[4.5]dec-8-yl)methyl]-1-H-imidazole-5-carboxylic acid], the IC50 was in the range of 0.5 to 20 nM.
The same measure, in the same setting: in the case of `Cc1cccnc1CN1CCC2(CC1)C(=O)N(c1ccc(-c3ccccc3)cc1)C(=O)N2C` [Compound 2-1, 3-biphenyl-4-yl-1-methyl-8-[(3-methylpyridin-2-yl)methyl]-1,3,8-triazaspiro[4.5]decane-2,4-dione] it was 0.5 to 20 nM.
Still for that read-out and setting: in the case of `Cc1cccnc1CN1CCC2(CC1)C(=O)N(c1ccc(-c3ccccc3)cc1)C(=O)N2CC(=O)O` [Compound 2-7] it was 0.5 to 20 nM.
